In this experiment the target is T1, recombinant human PDK1 (Homo sapiens, UniProt O15530).
T1 construct: containing amino acids 51-556 of the human PDK1 enzyme; made in house; host or cells: Sf9 insect cells
T1 sequence (O15530 51-556): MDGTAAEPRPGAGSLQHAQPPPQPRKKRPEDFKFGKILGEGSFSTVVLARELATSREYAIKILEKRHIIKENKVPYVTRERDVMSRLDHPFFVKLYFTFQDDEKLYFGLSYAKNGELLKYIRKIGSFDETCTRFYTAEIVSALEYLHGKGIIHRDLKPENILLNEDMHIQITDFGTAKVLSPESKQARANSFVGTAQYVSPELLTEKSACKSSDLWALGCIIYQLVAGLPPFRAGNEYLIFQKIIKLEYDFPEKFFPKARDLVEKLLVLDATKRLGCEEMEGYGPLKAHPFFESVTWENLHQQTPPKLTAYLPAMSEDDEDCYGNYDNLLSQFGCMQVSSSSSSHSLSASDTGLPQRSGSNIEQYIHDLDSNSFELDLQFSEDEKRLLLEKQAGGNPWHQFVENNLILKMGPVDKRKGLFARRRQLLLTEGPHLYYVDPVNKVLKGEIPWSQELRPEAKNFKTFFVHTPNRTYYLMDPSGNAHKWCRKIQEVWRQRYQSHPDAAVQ
Nature of the experiment: PDK1 IMAP fluorescence polarization assay (inhibition of peptide substrate phosphorylation). In kind it is biochemical. To be noted: Table 6; 10 nM PDK1 enzyme, 100 nM peptide substrate, 100 nM PIFtide, 2.5 uM ATP, 1.5 hours. For orientation: Fluorescence polarisation rises when a labelled molecule tumbles more slowly, as on binding a larger partner.

Molecules are shown by their SMILES.

For orientation: IC50 means the point on the concentration scale where inhibition reaches its midpoint. For the molecule `Cc1cc(-c2c[nH]c(C(=O)Nc3cccc(F)c3N3CCC[C@@H](N)C3)n2)nc(N)n1` [Compound 29, 4-(2-amino-6-methyl-4-pyrimidinyl)-N-[2-(3(R)-amino-1-piperidinyl)-3-fluorophenyl]-1H-imidazole-2-carboxamide], the half-inhibitory concentration (IC50) lay within 1 to 50 nM.
For `CCc1cc(-c2c[nH]c(C(=O)Nc3cccc(F)c3N3CCC(CN)CC3)n2)ccn1` [Compound 30, N-[2-[4-(aminomethyl)-1-piperidinyl]-3-fluorophenyl]-4-(2-ethyl-4-pyridinyl)-1H-imidazole-2-carboxamide] the value was 1 to 50 nM; for `NCC1CCN(c2c(F)cccc2NC(=O)c2nc(-c3cccc(S(N)(=O)=O)c3)c[nH]2)CC1` [Compound 31, N-[2-[4-(aminomethyl)-1-piperidinyl]-3-fluorophenyl]-4-[3-(aminosulfonyl)phenyl]-1H-imidazole-2-carboxamide], 51 to 250 nM.
On to `CNc1cc(-c2c[nH]c(C(=O)Nc3cccc(F)c3N3CCC(CN)CC3)n2)ccn1` [Compound 32, N-[2-[4-(aminomethyl)-1-piperidinyl]-3-fluorophenyl]-4-[2-(methylamino)-4-pyridinyl]-1H-imidazole-2-carboxamide], for which the 50% inhibitory concentration (IC50) lay within 1 to 50 nM.
For `CC(=O)Nc1cc(-c2c[nH]c(C(=O)Nc3cccc(F)c3N3CCC(CN)CC3)n2)ccn1` [Compound 33, 4-[2-(acetylamino)-4-pyridinyl]-N-[2-[4-(aminomethyl)-1-piperidinyl]-3-fluorophenyl]-1H-imidazole-2-carboxamide] the value was 51 to 250 nM; for `NCC1CCN(c2c(F)cccc2NC(=O)c2nc(-c3cccc(Cl)c3)c[nH]2)CC1` [Compound 34, N-[2-[4-(aminomethyl)-1-piperidinyl]-3-fluorophenyl]-4-(3-chlorophenyl)-1H-imidazole-2-carboxamide], 51 to 250 nM; for `NCC1CCN(c2c(F)cccc2NC(=O)c2nc(-c3ccnc(NCc4ccccc4)c3)c[nH]2)CC1` [Compound 35, N-[2-[4-(aminomethyl)-1-piperidinyl]-3-fluorophenyl]-4-[2-[(phenylmethyl)amino]-4-pyridinyl]-1H-imidazole-2-carboxamide], 1 to 50 nM.
As for `CN(C)c1cc(-c2c[nH]c(C(=O)Nc3cccc(F)c3N3CCC(CN)CC3)n2)ccn1` [Compound 36, N-[2-[4-(aminomethyl)-1-piperidinyl]-3-fluorophenyl]-4-[2-(dimethylamino)-4-pyridinyl]-1H-imidazole-2-carboxamide], the IC50 lay within 251 to 1000 nM.
For the molecule `Cc1ccc(C)c(-c2c[nH]c(C(=O)Nc3cccc(F)c3N3CCC(CN)CC3)n2)c1` [Compound 37, N-[2-[4-(aminomethyl)-1-piperidinyl]-3-fluorophenyl]-4-(2,5-dimethylphenyl)-1H-imidazole-2-carboxamide], the half-maximal inhibitory concentration (IC50) fell in the range of 1000 to 5000 nM.
`N[C@@H]1CCCN(c2c(F)cccc2NC(=O)c2nc(-c3ccc(F)cc3F)c[nH]2)C1` [Compound 38, N-[2-(3(R)-amino-1-piperidinyl)-3-fluorophenyl]-4-(2,4-difluorophenyl)-1H-imidazole-2-carboxamide]: the 50% inhibitory concentration (IC50) was in the range of 251 to 1000 nM.
For `N[C@@H]1CCCN(c2c(F)cccc2NC(=O)c2nc(-c3ccnc(-n4cccn4)c3)c[nH]2)C1` [Compound 39, N-[2-(3(R)-amino-1-piperidinyl)-3-fluorophenyl]-4-[2-(1H-pyrazol-1-yl)-4-pyridinyl]-1H-imidazole-2-carboxamide] the value was 251 to 1000 nM; for `CN(C)CC1CCN(c2ccccc2NC(=O)c2nc(-c3ccnc(N)c3)c[nH]2)CC1` [Compound 40, 4-(2-amino-4-pyridinyl)-N-[2-[4-[(dimethylamino)methyl]-1-piperidinyl]phenyl]-1H-imidazole-2-carboxamide], 251 to 1000 nM.
Consider `NCC1CCN(c2c(F)cccc2NC(=O)c2nc(-c3cccc(CCO)c3)c[nH]2)CC1` [Compound 41, N-[2-[4-(aminomethyl)-1-piperidinyl]-3-fluorophenyl]-4-[3-(2-hydroxyethyl)phenyl]-1H-imidazole-2-carboxamide], for which the 50% inhibitory concentration (IC50) lay in the range of 51 to 250 nM.
`NCC1CCN(c2c(F)cccc2NC(=O)c2nc(-c3ccnc(NC4CC4)c3)c[nH]2)CC1` [Compound 42, N-[2-[4-(aminomethyl)-1-piperidinyl]-3-fluorophenyl]-4-[2-(cyclopropylamino)-4-pyridinyl]-1H-imidazole-2-carboxamide]: the IC50 is 51 to 250 nM.
Take `Cc1cc(-c2c[nH]c(C(=O)Nc3cccc(F)c3N3CCC4CCNC4C3)n2)ccn1` (stereo not drawn) [Compound 43, N-[3-fluoro-2-(octahydro-6h-pyrrolo[2,3-c]pyridin-6-yl)phenyl]-4-(2-methyl-4-pyridinyl)-1H-imidazole-2-carboxamide]: the IC50 was in the range of 51 to 250 nM.
Turning to `N#Cc1cccc(-c2c[nH]c(C(=O)Nc3cccc(F)c3N3CCC(CN)CC3)n2)n1` [Compound 44, N-[2-[4-(aminomethyl)-1-piperidinyl]-3-fluorophenyl]-4-(6-cyano-2-pyridinyl)-1H-imidazole-2-carboxamide], the half-maximal inhibitory concentration (IC50) was in the range of 251 to 1000 nM.
`CC(=O)c1ccc(-c2c[nH]c(C(=O)Nc3cccc(F)c3N3CCC(CN)CC3)n2)s1` [Compound 45, 4-(5-acetyl-2-thienyl)-N-[2-[4-(aminomethyl)-1-piperidinyl]-3-fluorophenyl]-1H-imidazole-2-carboxamide]: the IC50 is 1000 to 5000 nM.
With `Cc1cc(-c2c[nH]c(C(=O)Nc3cccc(F)c3N3CCC4(CCCNC4)CC3)n2)ccn1` [Compound 46, N-[2-(2,9-diazaspiro[5,5]undec-9-yl)-3-fluorophenyl]-4-(2-methyl-4-pyridinyl)-1H-imidazole-2-carboxamide], the IC50 lay within 51 to 250 nM.
For the molecule `Cc1cc(-c2c[nH]c(C(=O)Nc3cccc(F)c3N3CCC(CN)CC3)n2)nc(N)n1` [Compound 47, N-[2-[4-(aminomethyl)-1-piperidinyl]-3-fluorophenyl]-4-(2-amino-6-methyl-4-pyrimidinyl)-1H-imidazole-2-carboxamide], the IC50 lay in the range of 1 to 50 nM.
As for `NCC1CCN(c2c(F)cccc2NC(=O)c2nc(-c3cc(C(F)(F)F)n[nH]3)c[nH]2)CC1` [Compound 48, N-[2-[4-(aminomethyl)-1-piperidinyl]-3-fluorophenyl]-4-[3-(trifluoromethyl)-1H-pyrazol-5-yl]-1H-imidazole-2-carboxamide], the IC50 lay within 251 to 1000 nM.
As to `Cc1nc(N)cc(-c2c[nH]c(C(=O)Nc3cccc(F)c3N3CCC(CN)CC3)n2)n1` [Compound 49, N-[2-[4-(aminomethyl)-1-piperidinyl]-3-fluorophenyl]-4-(6-amino-2-methyl-4-pyrimidinyl)-1H-imidazole-2-carboxamide], the IC50 was 51 to 250 nM.
Take `Cc1cc(-c2c[nH]c(C(=O)Nc3cccc(F)c3N3CCC(CN(C)C)CC3)n2)ccn1` [Compound 50, N-[2-[4-[(dimethylamino)methyl]-1-piperidinyl]-3-fluorophenyl]-4-(2-methyl-4-pyridinyl)-1H-imidazole-2-carboxamide]: the concentration for half-maximal inhibition (IC50) was 251 to 1000 nM.
With `NCC1CCN(c2ccc(-c3cn[nH]c3)cc2NC(=O)c2nc(-c3cn[nH]c3)c[nH]2)CC1` [Compound 51, N-[2-[4-(aminomethyl)-1-piperidinyl]-5-(1H-pyrazol-4-yl)phenyl]-4-(1H-pyrazol-4-yl)-1H-imidazole-2-carboxamide], the half-maximal inhibitory concentration (IC50) fell in the range of 251 to 1000 nM.
For `CCC1(CN)CCN(c2c(F)cccc2NC(=O)c2nc(-c3ccnc(C)c3)c[nH]2)CC1` [Compound 52, N-[2-[4-(aminomethyl)-4-ethyl-1-piperidinyl]-3-fluorophenyl]-4-(2-methyl-4-pyridinyl)-1H-imidazole-2-carboxamide] the value was 51 to 250 nM.
`NCC1CCN(c2c(F)cccc2NC(=O)c2nc(-c3cn[nH]c3)c[nH]2)CC1` [Compound 53, N-[2-[4-(aminomethyl)-1-piperidinyl]-3-fluorophenyl]-4-(1H-pyrazol-4-yl)-1H-imidazole-2-carboxamide]: the IC50 is 1 to 50 nM.
For `Cc1cc(-c2c[nH]c(C(=O)Nc3cccc(F)c3N3CC4CCC(C3)N4)n2)ccn1` [Compound 54, N-[2-(3,8-diazabicyclo[3.2.1]oct-3-yl)-3-fluorophenyl]-4-(2-methyl-4-pyridinyl)-1H-imidazole-2-carboxamide], the half-inhibitory concentration (IC50) lay within 1000 to 5000 nM.
For `Cc1cc(-c2c[nH]c(C(=O)Nc3cccc(F)c3N3CCC(C)(CN)CC3)n2)ccn1` [Compound 55, N-[2-[4-(aminomethyl)-4-methyl-1-piperidinyl]-3-fluorophenyl]-4-(2-methyl-4-pyridinyl)-1H-imidazole-2-carboxamide] the value was 51 to 250 nM; for `COC(=O)c1cccc(-c2c[nH]c(C(=O)Nc3cccc(F)c3N3CCC(CN)CC3)n2)c1` [Compound 56, methyl 3-[2-[[[2-[4-(aminomethyl)-1-piperidinyl]-3-fluorophenyl]amino]carbonyl]-1H-imidazol-4-yl]benzoate], 51 to 250 nM.
Regarding `CNCC1CCN(c2c(F)cccc2NC(=O)c2nc(-c3ccnc(C)c3)c[nH]2)CC1` [Compound 57, N-[3-fluoro-2-[4-[(methylamino)methyl]-1-piperidinyl]phenyl]-4-(2-methyl-4-pyridinyl)-1H-imidazole-2-carboxamide], the 50% inhibitory concentration (IC50) lay in the range of 251 to 1000 nM.
`Cc1cc(-c2c[nH]c(C(=O)Nc3cccc(F)c3N3CC4CNCC4C3)n2)ccn1` (stereo not drawn) [Compound 58, N-[3-fluoro-2-(hexahydropyrrolo[3,4-c]pyrrol-2(1H)-yl)phenyl]-4-(2-methyl-4-pyridinyl)-1H-imidazole-2-carboxamide]: the IC50 lay within 1000 to 5000 nM.

Source of the values: patent US8623857B2, “N-phenyl imidazole carboxamide inhibitors of 3-phosphoinositide-dependent protein kinase-1” (Merck Sharp & Dohme Corp., priority 2010, dated 2014).
